Active and inactive are the calls of the source. The rule behind the calls is not given here.
Key:
[1] = biological target: T1, Indoleamine 2,3-dioxygenase 1 (Homo sapiens, UniProt P14902); assay: Inhibition of recombinant human IDO1 in HeLa cells at 100 nM relative to control; format: cell-based
Target sequence in this assay (P14902 whole entry, looked up): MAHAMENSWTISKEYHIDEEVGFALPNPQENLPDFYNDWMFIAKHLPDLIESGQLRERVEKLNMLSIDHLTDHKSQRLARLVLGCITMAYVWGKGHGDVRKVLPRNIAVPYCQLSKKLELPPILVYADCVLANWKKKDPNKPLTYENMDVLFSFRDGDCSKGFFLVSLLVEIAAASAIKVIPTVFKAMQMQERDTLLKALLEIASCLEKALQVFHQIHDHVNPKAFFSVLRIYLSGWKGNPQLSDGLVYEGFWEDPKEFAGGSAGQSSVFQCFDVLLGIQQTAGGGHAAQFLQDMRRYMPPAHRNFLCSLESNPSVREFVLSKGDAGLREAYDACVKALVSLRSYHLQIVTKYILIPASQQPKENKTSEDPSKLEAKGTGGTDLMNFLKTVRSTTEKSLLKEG

[2] = biological target: T2, Indoleamine 2,3-dioxygenase 2 (Homo sapiens) (UniProt Q6ZQW0); assay: Inhibition of recombinant human IDO2 in HeLa cells at […] relative to control; format: cell-based
T2 sequence (whole entry): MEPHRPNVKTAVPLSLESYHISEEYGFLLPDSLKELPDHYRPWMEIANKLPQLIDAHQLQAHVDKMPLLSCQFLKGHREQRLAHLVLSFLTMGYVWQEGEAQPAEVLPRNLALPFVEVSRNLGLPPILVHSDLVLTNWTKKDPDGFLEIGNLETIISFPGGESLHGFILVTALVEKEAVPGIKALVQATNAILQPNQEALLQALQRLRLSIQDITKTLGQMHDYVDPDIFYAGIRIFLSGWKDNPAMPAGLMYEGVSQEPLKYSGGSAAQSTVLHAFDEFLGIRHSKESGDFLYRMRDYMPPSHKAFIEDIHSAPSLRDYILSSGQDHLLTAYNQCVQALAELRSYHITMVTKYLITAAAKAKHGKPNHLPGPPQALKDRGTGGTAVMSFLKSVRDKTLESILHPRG

HeLa [3] = assay: Antiproliferative activity against human HeLa cells at 5 uM; format: functional
Mus musculus [4] = assay: Antiinflammatory activity against xylene-induced ear swelling ICR mouse model assessed as swelling rate at 100 mg/kg, IG measured after 1 hr (Activity = 58.21 +/- 12.79%); format: functional
Mus musculus [5] = assay: Antiinflammatory activity against xylene-induced ear swelling ICR mouse model assessed as swelling inhibition ratio at 100 mg/kg, IG measured after 1 hr; format: functional; set-up: scale not given: the % may be the effect or the level left
[6] = biological target: T1, Indoleamine 2,3-dioxygenase 1; assay: Inhibition of IDO1 (unknown origin)
Target sequence in this assay (P14902 whole entry): as the sequence (P14902 whole entry, looked up) above

[7] = biological target: T3, Indoleamine 2,3-dioxygenase 2 (Homo sapiens, UniProt Q6ZQW0); assay: Inhibition of IDO2 (unknown origin)
T3 sequence (Q6ZQW0 whole entry): T2 sequence (whole entry)

[8] = biological target: Tryptophan 2,3-dioxygenase (Homo sapiens, UniProt P48775); assay: Inhibition of TDO (unknown origin)
[9] = biological target: T2, Indoleamine 2,3-dioxygenase 2 (Homo sapiens); assay: Inhibition of recombinant human IDO2 in HeLa cells at 100 nM relative to control; format: cell-based
[10] = biological target: T1, Indoleamine 2,3-dioxygenase 1; assay: Inhibition of human IDO1
Target sequence in this assay (P14902 whole entry): as the sequence (P14902 whole entry, looked up) above

[11] = biological target: T3, Indoleamine 2,3-dioxygenase 2; assay: Inhibition of human IDO2
HeLa [12] = assay: Antiproliferative activity against human HeLa cells; format: functional, cell-based
[13] = Metabolic stability in human liver microsome assessed as binding constant; format: ADME; details: microsomes
[14] = Metabolic stability in human liver microsome assessed as half life; format: ADME; details: liver microsomes
[15] = Metabolic stability in human liver microsome assessed as intrinsic permeability measured per mg of protein; format: ADME; details: microsomes
[16] = Metabolic stability in human liver microsome assessed as intrinsic clearance; format: ADME; details: microsomes
[17] = Half life in Sprague-Dawley rat at 10 mg/kg, po; format: ADME, organism-based; details: in vivo
[18] = Half life in Sprague-Dawley rat at 1 mg/kg, iv; format: ADME, organism-based; details: in vivo
[19] = Tmax in Sprague-Dawley rat at 10 mg/kg, po; format: ADME, organism-based; details: in vivo
[20] = Cmax in Sprague-Dawley rat at 10 mg/kg, po; format: ADME, organism-based; set-up: dose 10 mg/kg, route po; details: in vivo
[21] = AUC(0 to infinity) in Sprague-Dawley rat at 10 mg/kg, po; format: ADME, organism-based; set-up: time infinity, dose 10 mg/kg, route po; details: in vivo
[22] = AUC(0 to infinity) in Sprague-Dawley rat at 1 mg/kg, iv; format: ADME, organism-based; set-up: time infinity, dose 1 mg/kg, route iv; details: in vivo
[23] = Clearance in Sprague-Dawley rat at 1 mg/kg, iv; format: ADME, organism-based; details: in vivo
[24] = Apparent volume of distribution in Sprague-Dawley rat at 1 mg/kg, iv; format: ADME, organism-based; details: in vivo, read-out: Vz
[25] = MRT (0 to infinity) in Sprague-Dawley rat at 10 mg/kg, po; format: ADME, organism-based; details: in vivo
[26] = MRT (0 to infinity) in Sprague-Dawley rat at 1 mg/kg, iv; format: ADME, organism-based; details: in vivo
[27] = Oral bioavailability in Sprague-Dawley rat at 10 mg/kg; format: ADME, organism-based; details: in vivo
Mus musculus [28] = assay: Antiarthritic activity against collagen-induced arthritis ip dosed DBA/1J mouse model assessed as paw swelling administered from day 57 to 74 post CFA injection and measured every 3 days; format: functional, organism-based; details: dose 25-100 mg/kg, time 17.0 day, DDE = dose-dependent effect
Mus musculus [29] = assay: Antiarthritic activity against collagen-induced arthritis DBA/1J mouse model assessed as paw swelling at 100 mg/kg, ip administered from day 57 to 74 post CFA injection and measured every 3 days; format: functional, organism-based; details: time 17.0 day
Mus musculus [30] = assay: Antiarthritic activity against collagen-induced arthritis DBA/1J mouse model assessed as decrease in IL-18 level at 50 to 100 mg/kg, ip administered from day 57 to 74 post CFA injection and measured every 3 days by immunohistochemical staining method; format: functional, organism-based; details: dose 50-100 mg/kg, time 17.0 day
Mus musculus [31] = assay: Antiarthritic activity against collagen-induced arthritis DBA/1J mouse model assessed as decrease in IL-33 level at 50 to 100 mg/kg, ip administered from day 57 to 74 post CFA injection and measured every 3 days by immunohistochemical staining method; format: functional, organism-based; details: dose 50-100 mg/kg, time 17.0 day
Mus musculus [32] = assay: Antiarthritic activity against collagen-induced arthritis DBA/1J mouse model assessed as decrease in inflammation at 100 mg/kg, ip administered from day 57 to 74 post CFA injection and measured every 3 days by H and E staining method; format: functional, organism-based; details: time 17.0 day
Mus musculus [33] = assay: Antiarthritic activity against collagen-induced arthritis DBA/1J mouse model assessed as increase in cartilage at 100 mg/kg, ip administered from day 57 to 74 post CFA injection and measured every 3 days by H and E staining method; format: functional, organism-based; details: time 17.0 day
Mus musculus [34] = assay: Antiarthritic activity against collagen-induced arthritis DBA/1J mouse model assessed as decrease in bone erosion at 100 mg/kg, ip administered from day 57 to 74 post CFA injection and measured every 3 days by H and E staining method; format: functional, organism-based; details: time 17.0 day
Rattus norvegicus [35] = assay: Antiarthritic activity against adjuvant arthritis-induced Sprague-Dawley rat model assessed as decrease in paw swelling at 30 to 120 mg/kg, po administered from day 21 to 36 post CFA injection and measured every 3 days; format: functional, organism-based; details: dose 30-120 mg/kg, time 15.0 day
Rattus norvegicus [36] = assay: Antiarthritic activity against adjuvant arthritis-induced Sprague-Dawley rat model assessed as decrease in index score at 30 to 120 mg/kg, po administered from day 21 to 36 post CFA injection and measured every 3 days; format: functional, organism-based; details: dose 30-120 mg/kg, time 15.0 day
Rattus norvegicus [37] = assay: Antiarthritic activity against adjuvant arthritis-induced Sprague-Dawley rat model assessed as decrease in IL-6 level at 30 to 120 mg/kg, po administered from day 21 to 36 post CFA injection and measured every 3 days; format: functional, organism-based; details: dose 30-120 mg/kg, time 15.0 day
Rattus norvegicus [38] = assay: Antiarthritic activity against adjuvant arthritis-induced Sprague-Dawley rat model assessed as decrease in TNF-alpha level at 30 to 120 mg/kg, po administered from day 21 to 36 post CFA injection and measured every 3 days; format: functional, organism-based; details: dose 30-120 mg/kg, time 15.0 day
Rattus norvegicus [39] = assay: Antiarthritic activity against adjuvant arthritis-induced po dosed Sprague-Dawley rat model assessed as decrease in inflammatory cell infiltration administered from day 21 to 36 post CFA injection and measured every 3 days by H and E staining method; format: functional, organism-based; details: dose 50-100 mg/kg, time 15.0 day, DDE = dose-dependent effect
Rattus norvegicus [40] = assay: Antiarthritic activity against adjuvant arthritis-induced po dosed Sprague-Dawley rat model assessed as decrease in pannus formation administered from day 21 to 36 post CFA injection and measured every 3 days by H and E staining method; format: functional, organism-based; details: dose 50-100 mg/kg, time 15.0 day, DDE = dose-dependent effect
Rattus norvegicus [41] = assay: Antiarthritic activity against adjuvant arthritis-induced po dosed Sprague-Dawley rat model assessed as decrease in bone erosion of cartilage administered from day 21 to 36 post CFA injection and measured every 3 days by H and E staining method; format: functional, organism-based; details: dose 50-100 mg/kg, time 15.0 day, DDE = dose-dependent effect

Tryptophan 2,3-dioxygenase, sequence (P48775 whole entry): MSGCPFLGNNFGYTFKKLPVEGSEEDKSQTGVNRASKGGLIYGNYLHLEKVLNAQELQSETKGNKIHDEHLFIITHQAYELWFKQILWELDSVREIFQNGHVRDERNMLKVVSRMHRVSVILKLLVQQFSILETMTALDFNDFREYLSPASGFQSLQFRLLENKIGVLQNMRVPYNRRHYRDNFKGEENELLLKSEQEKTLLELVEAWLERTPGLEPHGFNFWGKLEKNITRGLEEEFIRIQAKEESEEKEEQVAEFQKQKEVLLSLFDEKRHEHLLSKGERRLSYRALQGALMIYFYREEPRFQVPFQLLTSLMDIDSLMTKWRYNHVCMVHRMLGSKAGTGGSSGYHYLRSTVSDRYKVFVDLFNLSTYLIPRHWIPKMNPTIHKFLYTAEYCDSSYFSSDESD

C[C@H](N/C(=N\O)c1nonc1NCCn1cc(CNC(=O)c2ccccn2)nn1)c1cccc(Br)c1
inhibition [1]: 3% | inhibition [2]: 15% | Activity (HeLa [3]): 17.87%

COc1ccc2cc([C@H](C)C(=O)O)ccc2c1 [NAPROXEN]
Activity (Mus musculus [4]): 31.85% | Activity (Mus musculus [5]): 45.29%

CN1CCN(c2ccc3nc4n(c(=O)c3c2)-c2ccc(F)cc2C4=O)CC1
IC50 [6]: 500 nM | IC50 [7]: 18400 nM | IC50 [8]: 760 nM

O=C(NCc1cn(CCNc2nonc2/C(=N/O)Nc2ccc(F)c(Br)c2)nn1)c1ccccn1
inhibition [1]: 72% | inhibition [9]: 39% | inhibition [2]: 61% | IC50 [10]: 52 nM | IC50 [11]: 387 nM | EC50 (HeLa [12]): 129 nM | Activity (Mus musculus [4]): 36.71% | Activity (Mus musculus [5]): 36.94%

O=C(NCc1cn(CCNc2nonc2/C(=N/O)NCc2ccc(F)cc2)nn1)c1ccc[nH]1
inhibition [1]: 9% | inhibition [2]: 10% | EC50 (HeLa [12]): 1210 nM

O=C(NCc1cn(CCNc2nonc2/C(=N/O)Nc2cc(Br)cc(Br)c2)nn1)c1ccccn1
inhibition [1]: 11% | inhibition [9]: 15% | inhibition [2]: 52% | EC50 (HeLa [12]): 1450 nM

Cc1ccc(Br)cc1N/C(=N\O)c1nonc1NCCn1cc(CNC(=O)c2ccccn2)nn1
inhibition [1]: 18% | inhibition [9]: 15% | inhibition [2]: 41% | EC50 (HeLa [12]): 663 nM

O=C(NCc1cn(CCNc2nonc2/C(=N/O)NCc2cccc(Br)c2)nn1)c1ccccn1
inhibition [1]: 26% | inhibition [9]: 41% | inhibition [2]: 97% | IC50 [10]: 411 nM | IC50 [11]: 112 nM | EC50 (HeLa [12]): 633 nM | Activity (Mus musculus [4]): 20.19% | Activity (Mus musculus [5]): 65.32% | K [13]: 0.014 min⁻¹ | half-life [14]: 49.5 min | Pm [15]: 0.25 mL⁻¹ | CLH [16]: 0.056 mL/min | half-life [17]: 121 min | half-life [18]: 41.4 min | Tmax [19]: 45 min | Cmax [20]: 154 ng/mL | AUC(0-inf) [21]: 670 ng·h/mL | AUC(0-inf) [22]: 375 ng·h/mL | clearance [23]: 44.5 mL/min/kg | Vd [24]: 2.68 L/kg | MRT inf [25]: 449 min | MRT inf [26]: 33 min | bioavailability [27]: 17.9% | Activity (Mus musculus [28]): Dde | Activity (Mus musculus [29]): Active | Activity (Mus musculus [30]): Active | Activity (Mus musculus [31]): Active | Activity (Mus musculus [32]): Active | Activity (Mus musculus [33]): Active | Activity (Mus musculus [34]): Active | Activity (Rattus norvegicus [35]): Active | Activity (Rattus norvegicus [36]): Active | Activity (Rattus norvegicus [37]): Active | Activity (Rattus norvegicus [38]): Active | Activity (Rattus norvegicus [39]): Dde | Activity (Rattus norvegicus [40]): Dde | Activity (Rattus norvegicus [41]): Dde

O=C(NCc1cn(CCNc2nonc2/C(=N/O)Nc2cccc(Br)c2)nn1)c1ccccn1
inhibition [1]: 71% | inhibition [9]: 16% | inhibition [2]: 64% | IC50 [10]: 37 nM | IC50 [11]: 575 nM | EC50 (HeLa [12]): 65 nM

O=C(NCc1cn(CCNc2nonc2/C(=N/O)NCc2cccc(Br)c2)nn1)c1ccc[nH]1
inhibition [1]: 12% | inhibition [9]: 24% | inhibition [2]: 70% | EC50 (HeLa [12]): 835 nM

O=C(NCc1cn(CCNc2nonc2/C(=N/O)NCc2ccc(Br)cc2)nn1)c1ccc[nH]1
inhibition [1]: 4% | inhibition [2]: 0% | EC50 (HeLa [12]): 2630 nM

O=C(NCc1cn(CCNc2nonc2/C(=N/O)NCc2ccccc2Br)nn1)c1ccc[nH]1
inhibition [1]: 1% | inhibition [2]: 4% | EC50 (HeLa [12]): 2850 nM

O=C(NCc1cn(CCNc2nonc2/C(=N/O)Nc2cc(Br)cc(C(F)(F)F)c2)nn1)c1ccccn1
inhibition [1]: 5% | inhibition [2]: 23% | EC50 (HeLa [12]): 3630 nM

O=C(NCc1cn(CCNc2nonc2/C(=N/O)NCc2ccc(F)cc2)nn1)c1ccccn1
inhibition [1]: 7% | inhibition [2]: 0% | EC50 (HeLa [12]): 1080 nM

From ChEMBL document CHEMBL5214930, “Discovery of the First Selective IDO2 Inhibitor As Novel Immunotherapeutic Avenues for Rheumatoid Arthritis” (J Med Chem, 2022)
